From patent US20250154120A1, “COUMARIN COMPOUNDS AND USES THEREOF” (priority 2022, published 2025)
Read-outs that look alike come from different tables or passages of the source.

Key:
HCT116 cells = experiment: HCT116 cell proliferation inhibition in vitro (3D CellTiter-Glo, 5 days); type: cell-based; conditions: Homo sapiens, HCT-116, 120 h, read-out: HCT116/IC50
Description: McCoy's 5A medium, penicillin/streptomycin antibiotics purchased from Vicente, fetal bovine serum purchased from Biosera. 3D CellTiter-Glo (cell viability chemiluminescence detection reagent) reagent purchased from Promega. HCT116 cell line purchased from Nanjing Kebai Biotechnology Co., Ltd. Envision multi-label analyzer (PerkinElmer).
HCT116 cells were seeded in ultra-low attachment 96-well U-shaped plates, with 80 μL of cell suspension per well, containing 1000 HCT116 cells. The cell plate was cultured in a carbon dioxide incubator overnight.
The compound to be tested was serially diluted 5-fold to the 9th concentration using a pipette, that is, from 2 mM to 5.12 nM, in duplicates. 78 μL of culture medium was added to a middle plate, and then 2 μL of the serially diluted compound per well was transferred to the middle plate according to the corresponding position. After mixing well, 20 μL of the mixture was transferred to each well of the cell plate. The concentration range of the compound transferred to the cell plate was 10 μM to 0.0256 nM. The cell plate was placed in a carbon dioxide incubator and cultured for 5 days. Another cell plate was prepared, and its signal value was read on the day of drug addition as the […] for data analysis.
100 μL of cell viability chemiluminescent detection reagent was added to the cell plate and the mixture was incubated at room temperature for 10 minutes to stabilize the luminescent signal. The plate was read using a multi-label analyzer.
The raw data was converted into inhibition rate using the equation (Sample−Min)/(Max−Min)*100%, and the IC50 value may be obtained by four-parameter curve fitting (obtained in the “log(inhibitor) vs. response—Variable slope” mode in GraphPad Prism). The assay results of the inhibitory activity of the compounds of the present disclosure on HCT116 cell proliferation are shown in Table 1.

[1] = Pharmacokinetic study in CD-1 male mice after oral and intravenous administration; type: in vivo; conditions: mouse, plasma; for AUC(0-t): read-out: Area under the plasma concentration-time curve AUC0-last
Description: Pharmacokinetic study of the test compound in CD-1 male mice after oral and intravenous injection
The test compound was mixed with 10% dimethyl sulfoxide/30% PEG-400/60% aqueous solution, vortexed and sonicated to prepare a 0.20 mg/mL clear solution. The clear solution was filtered through a microporous filter for later use. Male CD-1 mice aged 7 to 10 weeks were selected and intravenously injected with a candidate compound solution and a reference compound VS-6766 solution. The reference compound and the test compound were respectively mixed with 20% sulfobutyl-β-cyclodextrin/80% aqueous solution, vortexed and sonicated to prepare a 0.20 mg/mL nearly transparent solution containing fine particles, and the candidate compound solution was orally administered. Whole blood was collected for a certain period of time, and the plasma was prepared. The drug concentration was analyzed by LC-MS/MS method, and the pharmacokinetic parameters were calculated using Phoenix WinNonlin software (Pharsight, USA).

NCI-H358 = experiment: Subcutaneous xenograft tumor model of human non-small cell lung cancer NCI-H358 in female BALB/c Nude mice; type: in vivo, mouse
Description: In vivo pharmacodynamic study of the test drug on the subcutaneous xenograft tumor model of human non-small cell lung cancer NCI-H358 in female BALB/c Nude mice
1. Cell culture: Human lung cancer cells NCI-H358 (ECACC-95111733) were revived and cultured in vitro in monolayers in RPMI 1640 medium with 10% fetal bovine serum and 1% double antibody. The cells were cultured in a 37° C. 5% CO2 cell incubator, and passaged twice a week. When the saturation of NCI-H358 cells reached 80%-90%, the cells were harvested, counted, and inoculated.
2. Animals: BALB/c Nude mice, female, 6-8 weeks old, weighing 18-22 g
3. Tumor inoculation: 5×10^6 NCI-H358 cells were inoculated on the right side of the neck of each mouse, with an inoculation volume of 0.1 mL. The cell suspension was a mixture of PBS and Matrigel (3:1). When the average tumor volume reached 150-200 mm^3, the mice were randomly divided into groups for drug administration. The drug administration scheme and the number of assay animals in each group are shown in Table 3 below: Assay animal grouping and administration regimen
The assay index is to examine whether the tumor growth is inhibited, delayed or cured. The tumor diameter was measured with a vernier caliper twice a week. The calculation formula of tumor volume is: V=0.5 a×b^2, where a and b represent the long diameter and short diameter of the tumor respectively.
The anti-tumor efficacy of the compound was evaluated by TGI (%) or relative tumor proliferation rate T/C (%). TGI (%) reflects the tumor growth inhibition rate. Calculation of TGI (%): TGI (%)=[1−(average tumor volume of a certain treatment group at a certain measurement−average tumor volume of the treatment group at grouping)/(average tumor volume of the vehicle control group at the same measurement−average tumor volume of the vehicle control group at grouping)]×100%. Relative tumor proliferation rate T/C (%): The calculation formula is as follows: T/C %=TRTV/CRTV×100% (TRTV: RTV of the treatment group; CRTV: RTV of the negative control group). The relative tumor volume (RTV) was calculated based on the results of tumor measurement. The calculation formula is RTV=VtV0, where V0 is the average tumor volume measured at grouping (i.e. PG-D0), Vt is the average tumor volume at a certain measurement, and TRTV and CRTV are taken from the same day.
TGI (%) reflects the tumor growth inhibition rate. TGI (%)=[(1−(average tumor volume at the end of a treatment group's administration−average tumor volume at the beginning of the treatment group's administration))/(average tumor volume at the end of the vehicle control group's treatment−average tumor volume at the beginning of the vehicle control group's treatment)]×100%.

[2] = HCT116 cells, 5 days culture, cell viability chemiluminescence
[3] = 0.3 mg/kg p.o. QD, day 28 (discontinued D10-D17 and D23-D25)
[4] = 1.5 mg/kg p.o. QD, day 28 (discontinued D3-D13, changed to 0.05 after D14)

For `CNS(=O)(=O)Nc1cccc(Cc2c(C)c3c(F)cc(Oc4ncccn4)cc3oc2=O)c1F` [Compound 1], the IC50 (HCT116 cells; [2]) was 17 nM.

`CNS(=O)(=O)Nc1cccc(Cc2c(C)c3c(F)cc(OC(=O)N(C)C)cc3oc2=O)c1F` [Compound 2] gave an IC50 (HCT116 cells) of 7.2 nM.

Compound `CNS(=O)(=O)Nc1nccc(Cc2c(C)c3c(F)cc(Oc4ncccn4)cc3oc2=O)c1F` [Compound 3] has a Vd ([1]; intravenous injection, 1.04 mg/kg, read-out: Apparent volume of distribution Vdss) of 0.35 L/kg, an AUC(0-t) ([1]; intravenous injection, 1.04 mg/kg) of 46.8 µM·h and a clearance ([1]; intravenous injection, 1.04 mg/kg, read-out: Clearance CL) of 0.69 mL/min/kg. For the same compound, the half-life ([1]; intravenous injection, 1.04 mg/kg, read-out: Half-life T1/2 (converted)) was 5.73 h, the AUC(0-t) ([1]; oral administration, 2.16 mg/kg) was 85.8 µM·h and the Cmax ([1]; oral administration, 2.16 mg/kg, read-out: Peak concentration Cmax) was 10.9 µM. The Tmax ([1]; oral administration, 2.16 mg/kg, read-out: Time to peak Tmax) was 0.63 h, the bioavailability ([1]; oral administration, 2.16 mg/kg, read-out: Bioavailability F) was 89.8% and the Mean tumor volume (NCI-H358; [3]) was 71 mm^3. For the same compound, the T/C (NCI-H358; [3]) was 7.90%, the TGI (NCI-H358; [3]) was 111.4% and the Mean tumor volume (NCI-H358; [4]) was 67 mm^3. The T/C (NCI-H358; [4]) was 7.45%, the TGI (NCI-H358; [4]) was 111.9% and the IC50 (HCT116 cells; [2]) was 28.7 nM.
